These results are taken from patent US10004701B2, “Methods and compositions for treating infection” (UNIVERSITY OF ROCHESTER, priority 2012, dated 2018).

Holding throughout (assay): AK assay 384-well format, Prestwick library screening
One assay relates to E. faecium. Format: cell-based, Enterococcus faecium. To be noted: 50 μM final drug concentration; for fold induction at 50 µM: Enterococcus faecium, 3 h.
The test system of assay [1] is S. aureus strain USA300-0114. Format: cell-based, Staphylococcus aureus. As to conditions: 50 μM final drug concentration; for fold induction at 50 µM: Staphylococcus aureus, USA300, 3 h.
The subject of the next assay is K. pneumoniae. Format: cell-based, Klebsiella pneumoniae. To be noted: 50 μM final drug concentration; for fold induction at 50 µM: Klebsiella pneumoniae, 3 h.
In assay [2] the test system is A. baumannii strain 98-37-09. Format: cell-based, Acinetobacter baumannii. To be noted: 50 μM final drug concentration; for fold induction at 50 µM: Acinetobacter baumannii, 983709, 3 h.
A further assay concerns P. aeruginosa. It is filed as cell-based, Pseudomonas aeruginosa. To be noted: 50 μM final drug concentration; for fold induction at 50 µM: Pseudomonas aeruginosa, 3 h.
In the next assay the test system is E. cloacae. Format: cell-based, Enterobacter cloacae. To be noted: 50 μM final drug concentration; for fold induction at 50 µM: Enterobacter cloacae, 3 h.
For the next assay, the system named is E. coli. Format: cell-based, Escherichia coli. To be noted: 50 μM final drug concentration; for fold induction at 50 µM: Escherichia coli, 3 h.
Setting [3] is: 384-well format, cutoff for positive-scoring molecules 3-fold increase.
The mark [4] stands for this setting: planktonic E. faecium, 384-well, cutoff for positive-scoring molecules 3-fold increase, read-out: AK-based Prestwick Library Screening Results: E. faecium (increase in extracellular AK activity).
Where [5] appears, read: planktonic S. aureus, 384-well, cutoff for positive-scoring molecules 3-fold increase, read-out: AK-based Prestwick Library Screening Results: S. aureus (increase in extracellular AK activity).
[6] abbreviates: planktonic K. pneumoniae, 384-well, cutoff for positive-scoring molecules 3-fold increase, read-out: AK-based Prestwick Library Screening Results: K. pneumoniae (increase in extracellular AK activity).
[7] abbreviates: planktonic A. baumannii, 384-well, cutoff for positive-scoring molecules 3-fold increase, read-out: AK-based Prestwick Library Screening Results: A. baumannii (increase in extracellular AK activity).
The mark [8] stands for this setting: planktonic P. aeruginosa, 384-well, cutoff for positive-scoring molecules 3-fold increase, read-out: AK-based Prestwick Library Screening Results: P. aeruginosa (increase in extracellular AK activity).
Where [9] appears, read: planktonic E. cloacae, 384-well, cutoff for positive-scoring molecules 3-fold increase, read-out: AK-based Prestwick Library Screening Results: E. cloacae (increase in extracellular AK activity).
Setting [10] is: planktonic E. coli, 384-well, cutoff for positive-scoring molecules 3-fold increase, read-out: AK-based Prestwick Library Screening Results: E. coli (increase in extracellular AK activity).

Structures can show the parent of a compound that is named as a salt. Where two headings read alike, the source gives them in different places.

Turning to `CCCCc1ccc(C(=O)O)nc1` [Fusaric acid], the fold induction at 50 µM in the assay with E. faecium (planktonic E. faecium, […], read-out: AK-based Prestwick Library Screening Results, E. faecium (increase in extracellular AK activity)) came out at 1.1; in assay [1] (planktonic S. aureus, […], read-out: AK-based Prestwick Library Screening Results, S. aureus (increase in extracellular AK activity)), 0.9; in the assay with K. pneumoniae (planktonic K. pneumoniae, […], read-out: AK-based Prestwick Library Screening Results, K. pneumoniae (increase in extracellular AK activity)) it was 0.9; in assay [2] (planktonic A. baumannii, […], read-out: AK-based Prestwick Library Screening Results, A. baumannii (increase in extracellular AK activity)), 0.9; in the assay on P. aeruginosa (planktonic P. aeruginosa, […], read-out: AK-based Prestwick Library Screening Results, P. aeruginosa (increase in extracellular AK activity)), 1.1; in the assay with E. cloacae (planktonic E. cloacae, […], read-out: AK-based Prestwick Library Screening Results, E. cloacae (increase in extracellular AK activity)), 1.2. In addition, in the assay on E. coli (planktonic E. coli, […], read-out: AK-based Prestwick Library Screening Results, E. coli (increase in extracellular AK activity)), the fold induction at 50 µM was 0.8.
As to `C1CCC(C(CC2CCCCN2)C2CCCCC2)CC1` (centres unmarked) [Perhexiline maleate], the fold induction at 50 µM with E. faecium (planktonic E. faecium, 384-well, […], read-out: AK-based Prestwick Library Screening Results: E. faecium (increase in extracellular AK activity)) was 1.2; in assay [1] (planktonic S. aureus, 384-well, […], read-out: AK-based Prestwick Library Screening Results: S. aureus (increase in extracellular AK activity)), 0.8; in the assay with K. pneumoniae (planktonic K. pneumoniae, 384-well, […], read-out: AK-based Prestwick Library Screening Results: K. pneumoniae (increase in extracellular AK activity)), 1.6; in assay [2] (planktonic A. baumannii, 384-well, […], read-out: AK-based Prestwick Library Screening Results: A. baumannii (increase in extracellular AK activity)), 3.4; in the assay with P. aeruginosa (planktonic P. aeruginosa, 384-well, […], read-out: AK-based Prestwick Library Screening Results: P. aeruginosa (increase in extracellular AK activity)), 1.4; in the assay with E. cloacae (planktonic E. cloacae, 384-well, […], read-out: AK-based Prestwick Library Screening Results: E. cloacae (increase in extracellular AK activity)) it was 1.5. Besides, in the assay with E. coli (planktonic E. coli, 384-well, […], read-out: AK-based Prestwick Library Screening Results: E. coli (increase in extracellular AK activity)), the fold induction at 50 µM came out at 1.8.
As to `CC(=O)Oc1cc(C(F)(F)F)ccc1C(=O)O` [Triflusal], the fold induction at 50 µM stood at 1 in the assay on E. faecium (planktonic, […], read-out: AK-based Prestwick Library Screening Results, E. faecium (fold increase in extracellular AK activity)); 1.4 in assay [1] (planktonic, […], read-out: AK-based Prestwick Library Screening Results, S. aureus (fold increase in extracellular AK activity)); 0.9 in the assay with K. pneumoniae (planktonic, […], read-out: AK-based Prestwick Library Screening Results, K. pneumoniae (fold increase in extracellular AK activity)); 1 in assay [2] (planktonic, […], read-out: AK-based Prestwick Library Screening Results, A. baumannii (fold increase in extracellular AK activity)); 1.2 in the assay on P. aeruginosa (planktonic, […], read-out: AK-based Prestwick Library Screening Results, P. aeruginosa (fold increase in extracellular AK activity)); 1.3 in the assay on E. cloacae (planktonic, […], read-out: AK-based Prestwick Library Screening Results, E. cloacae (fold increase in extracellular AK activity)). The fold induction at 50 µM with E. coli (planktonic, […], read-out: AK-based Prestwick Library Screening Results, E. coli (fold increase in extracellular AK activity)) worked out at 1.2.
With `CC[C@@]1(O)C(=O)OCc2c1cc1n(c2=O)Cc2cc3ccccc3nc2-1` [Camptothecine (S,+)], in the assay on E. faecium (setting [3]), the “AK-based Prestwick Library Screening Results, E. faecium (increase in extracellular AK activity)” value turned out to be 0.9. In addition, the “AK-based Prestwick Library Screening Results, S. aureus (increase in extracellular AK activity)” value in assay [1] (setting [3]) is reported as 0.7. Besides, the “AK-based Prestwick Library Screening Results, K. pneumoniae (increase in extracellular AK activity)” value in the assay with K. pneumoniae (setting [3]) was 0.8. Further, the “AK-based Prestwick Library Screening Results, A. baumannii (increase in extracellular AK activity)” value in assay [2] (setting [3]) is on record as 0.8. Besides, in the assay on P. aeruginosa (setting [3]), the “AK-based Prestwick Library Screening Results, P. aeruginosa (increase in extracellular AK activity)” value worked out at 0.8. In addition, the “AK-based Prestwick Library Screening Results, E. cloacae (increase in extracellular AK activity)” value in the assay on E. cloacae (setting [3]) worked out at 1.1. Besides, the “AK-based Prestwick Library Screening Results, E. coli (increase in extracellular AK activity)” value in the assay on E. coli (setting [3]) turned out to be 0.9.
`C[C@@H]1[C@H](O)[C@@H](C)/C=C/C=C/C=C/C=C/C=C/C=C/C=C/[C@H](O[C@@H]2O[C@H](C)[C@@H](O)[C@H](N)[C@@H]2O)C[C@@H]2O[C@](O)(C[C@@H](O)C[C@@H](O)[C@H](O)CC[C@@H](O)C[C@@H](O)CC(=O)O[C@H]1C)C[C@H](O)[C@H]2C(=O)O` [Amphotericin B]: in the assay with E. faecium (planktonic E. faecium, 384-well, cutoff for positive-scoring molecules 3-fold increase), the “AK-based Prestwick Library Screening Results: E. faecium (increase in extracellular AK activity)” value was determined as 0.9. Further, the “AK-based Prestwick Library Screening Results: S. aureus (increase in extracellular AK activity)” value in assay [1] (planktonic S. aureus, 384-well, cutoff for positive-scoring molecules 3-fold increase) is listed as 0.5. Also, the “AK-based Prestwick Library Screening Results: K. pneumoniae (increase in extracellular AK activity)” value in the assay with K. pneumoniae (planktonic K. pneumoniae, 384-well, cutoff for positive-scoring molecules 3-fold increase) is recorded as 0.7. In addition, the “AK-based Prestwick Library Screening Results: A. baumannii (increase in extracellular AK activity)” value in assay [2] (planktonic A. baumannii, 384-well, cutoff for positive-scoring molecules 3-fold increase) is given as 0.5. For the same compound, in the assay with P. aeruginosa (planktonic P. aeruginosa, 384-well, cutoff for positive-scoring molecules 3-fold increase), the “AK-based Prestwick Library Screening Results: P. aeruginosa (increase in extracellular AK activity)” value is recorded as 0.4. Also, the “AK-based Prestwick Library Screening Results: E. cloacae (increase in extracellular AK activity)” value in the assay on E. cloacae (planktonic E. cloacae, 384-well, cutoff for positive-scoring molecules 3-fold increase) is 0.5. In addition, in the assay with E. coli (planktonic E. coli, 384-well, cutoff for positive-scoring molecules 3-fold increase), the “AK-based Prestwick Library Screening Results: E. coli (increase in extracellular AK activity)” value stood at 0.5.
Turning to `O=[N+]([O-])c1cc([As](=O)(O)O)ccc1O` [Roxarsone], in the assay with E. faecium ([…]), the “AK-based Prestwick Library Screening Results, E. faecium (fold increase in extracellular AK activity)” value turned out to be 0.8. For the same compound, the “AK-based Prestwick Library Screening Results, S. aureus (fold increase in extracellular AK activity)” value in assay [1] ([…]) worked out at 0.6. Also, in the assay on K. pneumoniae ([…]), the “AK-based Prestwick Library Screening Results, K. pneumoniae (fold increase in extracellular AK activity)” value is 0.4. In addition, the “AK-based Prestwick Library Screening Results, A. baumannii (fold increase in extracellular AK activity)” value in assay [2] ([…]) amounted to 0.5. Moreover, the “AK-based Prestwick Library Screening Results, P. aeruginosa (fold increase in extracellular AK activity)” value in the assay with P. aeruginosa ([…]) is recorded as 0.5. Further, the “AK-based Prestwick Library Screening Results, E. cloacae (fold increase in extracellular AK activity)” value with E. cloacae ([…]) was 0.5. Moreover, the “AK-based Prestwick Library Screening Results, E. coli (fold increase in extracellular AK activity)” value with E. coli ([…]) is given as 0.4.
As to `COC(=O)Nc1nc2ccc(Sc3ccccc3)cc2[nH]1` [Fenbendazole], the fold induction at 50 µM in the assay with E. faecium (setting [4]) was 0.9; in assay [1] (setting [5]), 0.6; with K. pneumoniae (setting [6]), 0.7; in assay [2] (setting [7]), 0.9; with P. aeruginosa (setting [8]), 0.9; with E. cloacae (setting [9]) it was 1.3. Also, the fold induction at 50 µM with E. coli (setting [10]) stood at 0.9.
Regarding `OCCOCCN1CCN(C(c2ccccc2)c2ccc(Cl)cc2)CC1` (centres unmarked) [Hydroxyzine dihydrochloride], the fold induction at 50 µM is 0.9 with E. faecium (setting [4]); 0.9 in assay [1] (setting [5]); 0.8 in the assay with K. pneumoniae (setting [6]); 1 in assay [2] (setting [7]); 1 in the assay with P. aeruginosa (setting [8]); 1.6 in the assay with E. cloacae (setting [9]). Besides, the fold induction at 50 µM with E. coli (setting [10]) was 1.
